The results in this text go back to ChEMBL document CHEMBL5143696, “Discovery of novel benzothiophene derivatives as potent and narrow spectrum inhibitors of DYRK1A and DYRK1B” (Bioorg Med Chem Lett, 2022).

Active and inactive are the calls of the source. No cut-off for these calls is given here. A value given as a limit tells only on which side of the number the result lay.

For assay [1], the target named is T1, Dual specificity tyrosine-phosphorylation-regulated kinase 1A (Homo sapiens, UniProt Q13627). Nature of the assay: Inhibition of human DYRK1A incubated for 90 mins in presence of ATP by Z-LYTE based FRET assay.
Assay [2] deals with T2, Dual specificity tyrosine-phosphorylation-regulated kinase 1B (Homo sapiens, UniProt Q9Y463). Description: Inhibition of human DYRK1B incubated for 130 mins in presence of ATP by ADP-Glo kinase assay.
Target sequence in this assay (Q9Y463 whole entry, the tested form may be a part): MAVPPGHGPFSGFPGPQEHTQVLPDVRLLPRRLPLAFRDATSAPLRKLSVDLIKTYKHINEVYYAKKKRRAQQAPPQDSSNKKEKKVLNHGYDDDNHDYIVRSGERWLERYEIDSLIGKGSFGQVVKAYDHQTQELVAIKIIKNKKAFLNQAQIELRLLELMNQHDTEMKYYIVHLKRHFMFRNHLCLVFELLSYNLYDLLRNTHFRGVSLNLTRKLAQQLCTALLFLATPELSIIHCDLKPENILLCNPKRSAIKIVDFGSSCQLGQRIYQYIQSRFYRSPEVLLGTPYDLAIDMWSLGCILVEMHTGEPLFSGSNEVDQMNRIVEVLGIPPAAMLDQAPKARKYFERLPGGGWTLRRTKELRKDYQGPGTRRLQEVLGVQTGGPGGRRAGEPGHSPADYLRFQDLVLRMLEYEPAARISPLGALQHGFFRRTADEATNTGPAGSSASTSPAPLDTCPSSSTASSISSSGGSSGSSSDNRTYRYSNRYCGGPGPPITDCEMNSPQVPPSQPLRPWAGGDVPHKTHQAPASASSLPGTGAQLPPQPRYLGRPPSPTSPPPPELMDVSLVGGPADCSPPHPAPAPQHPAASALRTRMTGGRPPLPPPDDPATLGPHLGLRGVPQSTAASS
The target of assay [3] is T1, Dual specificity tyrosine-phosphorylation-regulated kinase 1A. Nature of the assay: Inhibition of NanoLuc-fused human DYRK1A expressed in HEK293 cells using Nano-Glo as substrate incubated for 2 hrs by NanoBRET assay. It counts as cell-based.
In assay [4] the target is T2, Dual specificity tyrosine-phosphorylation-regulated kinase 1B. Nature of the assay: Inhibition of NanoLuc-fused human DYRK1B expressed in HEK293T cells using Nano-Glo as substrate incubated for 2 hrs by NanoBRET assay. It counts as cell-based.
Target sequence in this assay (Q9Y463 whole entry, the tested form may be a part): as above
In assay [5] the test system is HeLa. Nature of the assay: Cytotoxicity against human HeLa cells assessed as cell viability at 30 uM incubated for 24 hrs by MTT assay. It counts as functional. The conditions noted are these: read-out: Activity. For orientation: Formazan colour is commonly taken as a measure of viable cells.
For assay [6], the target named is T3, Serine/threonine-protein kinase PRP4 homolog (Homo sapiens, UniProt Q13523). Nature of the assay: Inhibition of DNA-tagged human PRP4 expressed in Escherichia coli incubated for 1.5 hrs by KINOMEscan assay.
T3 sequence (Q13523 whole entry): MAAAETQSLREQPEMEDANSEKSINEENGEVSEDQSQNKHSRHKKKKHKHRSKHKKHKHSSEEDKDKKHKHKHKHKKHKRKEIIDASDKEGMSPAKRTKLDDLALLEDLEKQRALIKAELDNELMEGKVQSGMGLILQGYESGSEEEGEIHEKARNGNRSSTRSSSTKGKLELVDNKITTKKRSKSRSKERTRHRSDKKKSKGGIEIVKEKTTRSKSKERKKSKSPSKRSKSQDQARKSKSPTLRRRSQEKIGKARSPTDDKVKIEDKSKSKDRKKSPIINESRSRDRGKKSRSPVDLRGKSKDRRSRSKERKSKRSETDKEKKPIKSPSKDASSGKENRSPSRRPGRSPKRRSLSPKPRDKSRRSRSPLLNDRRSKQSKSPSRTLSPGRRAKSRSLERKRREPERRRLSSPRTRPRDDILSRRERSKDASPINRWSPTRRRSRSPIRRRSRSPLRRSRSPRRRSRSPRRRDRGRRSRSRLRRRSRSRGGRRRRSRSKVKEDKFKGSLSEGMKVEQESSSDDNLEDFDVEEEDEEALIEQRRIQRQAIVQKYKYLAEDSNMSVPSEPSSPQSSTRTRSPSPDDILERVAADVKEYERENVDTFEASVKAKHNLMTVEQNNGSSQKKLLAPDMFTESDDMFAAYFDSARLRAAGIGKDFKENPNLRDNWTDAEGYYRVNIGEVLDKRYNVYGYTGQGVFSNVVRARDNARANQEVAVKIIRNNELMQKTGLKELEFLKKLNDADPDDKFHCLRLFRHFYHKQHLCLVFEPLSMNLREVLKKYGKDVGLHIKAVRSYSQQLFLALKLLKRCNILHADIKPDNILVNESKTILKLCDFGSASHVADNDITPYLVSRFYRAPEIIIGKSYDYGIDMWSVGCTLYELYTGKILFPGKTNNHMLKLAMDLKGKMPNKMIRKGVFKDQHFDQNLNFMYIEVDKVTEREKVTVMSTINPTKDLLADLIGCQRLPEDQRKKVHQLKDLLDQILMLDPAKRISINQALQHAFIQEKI
For assay [7], the system named is HeLa. Description: Cytotoxicity against human HeLa cells assessed as reduction in cell viability at 30 uM incubated for 24 hrs in presence of staurosporine by MTT assay. It counts as functional, cell-based.
Assay [8] has as its target T3, Serine/threonine-protein kinase PRP4 homolog. Nature of the assay: Inhibition of human PRP4 using casein as substrate at 1 uM incubated for 120 mins in presence of [gamma-33P-ATP] by radiometric scintillation assay.
Assay [9] deals with Cyclin-dependent kinase 5 (Homo sapiens) (UniProt Q00535). Description: Inhibition of N-terminal GST-tagged full length human recombinant CDK5 expressed in Sf9 insect cells at 1 uM incubated for 60 mins in presence of [gamma33P]ATP by microplate scintillation counter relative to control.
Chain of Cyclin-dependent kinase 5 (Homo sapiens) (Q00535 whole entry, looked up): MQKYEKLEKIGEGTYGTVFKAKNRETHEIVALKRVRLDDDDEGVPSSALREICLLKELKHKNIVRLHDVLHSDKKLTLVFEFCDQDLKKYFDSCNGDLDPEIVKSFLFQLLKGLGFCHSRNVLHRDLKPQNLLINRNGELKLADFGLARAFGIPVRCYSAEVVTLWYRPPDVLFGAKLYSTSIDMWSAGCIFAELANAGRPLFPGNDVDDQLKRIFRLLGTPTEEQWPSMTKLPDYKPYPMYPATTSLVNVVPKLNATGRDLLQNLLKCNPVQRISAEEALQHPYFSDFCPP
Assay [10] has as its target Serine/threonine-protein kinase pim-3 (Homo sapiens) (UniProt Q86V86). Description: Inhibition of His6-tagged full length human recombinant PIM3 expressed in Sf9 insect cells at 1 uM incubated for 60 mins in presence of [gamma33P]ATP by microplate scintillation counter relative to control.
Assay [11] addresses Mitogen-activated protein kinase 7 (Homo sapiens) (UniProt Q13164). Nature of the assay: Inhibition of N-terminal recombinant human ERK5 expressed in Sf9 insect cells at 1 uM incubated for 60 mins in presence of [gamma33P]ATP by microplate scintillation counter relative to control.
The target of assay [12] is Serine/threonine-protein kinase pim-1 (Homo sapiens) (UniProt P11309). Nature of the assay: Inhibition of His6-tagged full length human recombinant PIM1 expressed in Sf9 insect cells at 1 uM incubated for 60 mins in presence of [gamma33P]ATP by microplate scintillation counter relative to control.
Assay [13] has as its target T4, Serine/threonine-protein kinase TAO3 (Homo sapiens) (UniProt Q9H2K8).
T4 sequence (whole entry): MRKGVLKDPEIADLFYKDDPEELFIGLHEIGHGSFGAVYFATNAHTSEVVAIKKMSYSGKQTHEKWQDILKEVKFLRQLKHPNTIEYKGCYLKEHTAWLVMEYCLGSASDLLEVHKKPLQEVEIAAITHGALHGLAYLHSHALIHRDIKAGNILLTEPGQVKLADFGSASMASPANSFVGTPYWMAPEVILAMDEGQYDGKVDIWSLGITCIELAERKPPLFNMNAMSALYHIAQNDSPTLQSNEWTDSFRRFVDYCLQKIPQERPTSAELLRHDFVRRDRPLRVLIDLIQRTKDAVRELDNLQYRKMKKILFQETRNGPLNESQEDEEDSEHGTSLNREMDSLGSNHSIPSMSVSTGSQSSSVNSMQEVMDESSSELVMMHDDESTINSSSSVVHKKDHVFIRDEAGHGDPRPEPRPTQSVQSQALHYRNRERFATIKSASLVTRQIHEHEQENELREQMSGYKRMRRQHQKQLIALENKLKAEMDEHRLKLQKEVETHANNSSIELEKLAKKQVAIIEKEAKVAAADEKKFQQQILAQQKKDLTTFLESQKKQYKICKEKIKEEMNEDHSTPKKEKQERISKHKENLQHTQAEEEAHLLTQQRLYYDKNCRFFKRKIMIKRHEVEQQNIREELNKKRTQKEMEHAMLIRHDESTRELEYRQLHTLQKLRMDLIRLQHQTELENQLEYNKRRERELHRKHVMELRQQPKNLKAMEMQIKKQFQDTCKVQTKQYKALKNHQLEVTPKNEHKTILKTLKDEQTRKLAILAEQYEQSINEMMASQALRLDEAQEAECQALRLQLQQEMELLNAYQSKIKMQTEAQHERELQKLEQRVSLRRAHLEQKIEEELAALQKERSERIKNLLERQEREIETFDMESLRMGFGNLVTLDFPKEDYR
Nature of the assay: Inhibition of full length human recombinant TAOK3 expressed in baculovirus infected Sf9 cells at 1 uM incubated for 60 mins in presence of [gamma33P]ATP by microplate scintillation counter relative to control.

The target of assay [14] is T1, Dual specificity tyrosine-phosphorylation-regulated kinase 1A. Description: Inhibition of human DYRK1A expressed in Sf9 insect cells at 1 uM incubated for 60 mins in presence of [gamma33P]ATP by microplate scintillation counter relative to control.
The target in assay [15] is Cyclin-dependent kinase 4 (Homo sapiens) (UniProt P11802). Description: Inhibition of N-terminal GST-tagged full length human recombinant CDK4 expressed in Sf9 insect cells at 1 uM incubated for 60 mins in presence of [gamma33P]ATP by microplate scintillation counter relative to control.
Chain of Cyclin-dependent kinase 4 (Homo sapiens) (P11802 whole entry): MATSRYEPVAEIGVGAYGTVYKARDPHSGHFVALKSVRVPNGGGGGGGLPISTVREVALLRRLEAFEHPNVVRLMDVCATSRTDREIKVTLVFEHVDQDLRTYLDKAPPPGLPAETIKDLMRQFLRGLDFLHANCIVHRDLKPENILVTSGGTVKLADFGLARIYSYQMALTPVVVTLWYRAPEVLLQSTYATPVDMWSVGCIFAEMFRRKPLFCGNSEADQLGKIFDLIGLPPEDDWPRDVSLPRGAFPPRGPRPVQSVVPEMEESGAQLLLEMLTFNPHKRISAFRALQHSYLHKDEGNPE
The nature of assay [16]: Inhibition of His6-tagged full length human recombinant CDK11 expressed in Sf9 insect cells at 1 uM incubated for 60 mins in presence of [gamma33P]ATP by microplate scintillation counter relative to control.
The target in assay [17] is Cyclin-dependent kinase 8 (Homo sapiens) (UniProt P49336). Nature of the assay: Inhibition of N-terminal GST-tagged full length human recombinant CDK8 expressed in Sf9 insect cells at 1 uM incubated for 60 mins in presence of [gamma33P]ATP by microplate scintillation counter relative to control.
Chain of Cyclin-dependent kinase 8 (Homo sapiens) (P49336 whole entry): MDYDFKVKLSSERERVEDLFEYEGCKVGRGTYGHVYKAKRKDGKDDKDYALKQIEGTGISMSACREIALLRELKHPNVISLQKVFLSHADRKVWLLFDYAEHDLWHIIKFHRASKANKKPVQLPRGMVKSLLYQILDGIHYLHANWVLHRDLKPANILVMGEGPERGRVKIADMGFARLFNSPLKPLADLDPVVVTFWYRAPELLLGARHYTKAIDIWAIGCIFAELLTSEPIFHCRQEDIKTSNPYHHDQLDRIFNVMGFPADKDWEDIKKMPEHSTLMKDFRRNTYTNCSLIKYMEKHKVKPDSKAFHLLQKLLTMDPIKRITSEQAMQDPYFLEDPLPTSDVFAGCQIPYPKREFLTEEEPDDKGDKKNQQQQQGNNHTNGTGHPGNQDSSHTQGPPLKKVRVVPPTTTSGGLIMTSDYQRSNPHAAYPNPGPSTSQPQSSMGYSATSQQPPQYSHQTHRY
Assay [18] has as its target T2, Dual specificity tyrosine-phosphorylation-regulated kinase 1B. Nature of the assay: Inhibition of human DYRK1B expressed in Sf9 insect cells at 1 uM incubated for 60 mins in presence of [gamma33P]ATP by microplate scintillation counter relative to control.
Target sequence in this assay (Q9Y463 whole entry, looked up, the tested form may be a part): as the sequence (Q9Y463 whole entry, the tested form may be a part) above
Assay [19] has as its target Cyclin-dependent kinase 6 (Homo sapiens) (UniProt Q00534). Nature of the assay: Inhibition of N-terminal GST-tagged full length human recombinant CDK6 expressed in Sf9 insect cells at 1 uM incubated for 60 mins in presence of [gamma33P]ATP by microplate scintillation counter relative to control.
The target of assay [20] is Cyclin-dependent kinase 16 (Homo sapiens) (UniProt Q00536). Nature of the assay: Inhibition of His6-tagged full length human recombinant CDK16 expressed in Sf9 insect cells at 1 uM incubated for 60 mins in presence of [gamma33P]ATP by microplate scintillation counter relative to control.
Chain of Cyclin-dependent kinase 16 (Homo sapiens) (Q00536 whole entry): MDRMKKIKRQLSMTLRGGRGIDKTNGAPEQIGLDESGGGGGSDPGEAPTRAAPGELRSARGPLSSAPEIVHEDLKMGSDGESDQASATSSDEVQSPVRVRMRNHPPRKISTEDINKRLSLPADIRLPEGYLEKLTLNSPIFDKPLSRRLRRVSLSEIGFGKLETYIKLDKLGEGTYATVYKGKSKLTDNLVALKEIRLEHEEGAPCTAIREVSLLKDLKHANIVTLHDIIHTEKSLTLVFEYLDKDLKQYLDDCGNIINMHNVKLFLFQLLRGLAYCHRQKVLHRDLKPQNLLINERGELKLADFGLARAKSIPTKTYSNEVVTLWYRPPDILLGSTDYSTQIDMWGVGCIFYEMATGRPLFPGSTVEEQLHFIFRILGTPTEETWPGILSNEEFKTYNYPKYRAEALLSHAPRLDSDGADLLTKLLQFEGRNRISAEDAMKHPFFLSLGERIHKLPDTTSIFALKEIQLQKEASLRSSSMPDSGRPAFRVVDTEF
In assay [21] the target is T5, Inhibitor of nuclear factor kappa-B kinase subunit alpha (Homo sapiens) (UniProt O15111).
T5 sequence (whole entry): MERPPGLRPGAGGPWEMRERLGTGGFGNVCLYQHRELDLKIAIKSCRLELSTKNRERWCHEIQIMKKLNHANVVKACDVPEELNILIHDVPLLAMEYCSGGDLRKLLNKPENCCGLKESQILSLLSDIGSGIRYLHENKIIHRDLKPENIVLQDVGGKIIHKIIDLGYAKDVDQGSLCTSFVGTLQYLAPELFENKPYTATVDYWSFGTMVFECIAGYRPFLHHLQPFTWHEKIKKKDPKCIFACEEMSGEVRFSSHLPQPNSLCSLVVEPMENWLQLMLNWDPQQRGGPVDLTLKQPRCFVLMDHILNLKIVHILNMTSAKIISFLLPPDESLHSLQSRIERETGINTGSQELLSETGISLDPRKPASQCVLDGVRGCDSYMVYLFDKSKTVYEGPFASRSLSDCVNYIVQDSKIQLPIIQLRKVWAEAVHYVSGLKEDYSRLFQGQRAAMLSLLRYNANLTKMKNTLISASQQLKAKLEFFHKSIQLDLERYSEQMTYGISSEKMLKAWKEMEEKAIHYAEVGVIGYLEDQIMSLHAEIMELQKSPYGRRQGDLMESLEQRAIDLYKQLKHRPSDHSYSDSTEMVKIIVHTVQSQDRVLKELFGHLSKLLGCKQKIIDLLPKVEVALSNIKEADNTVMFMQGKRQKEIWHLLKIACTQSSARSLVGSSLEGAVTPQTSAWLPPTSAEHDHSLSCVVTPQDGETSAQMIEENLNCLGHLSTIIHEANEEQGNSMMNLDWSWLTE
Nature of the assay: Inhibition of full length human recombinant IKKalpha expressed in baculovirus infected Sf9 cells at 1 uM incubated for 60 mins in presence of [gamma33P]ATP by microplate scintillation counter relative to control.

Chain of Cyclin-dependent kinase 6 (Homo sapiens) (Q00534 whole entry): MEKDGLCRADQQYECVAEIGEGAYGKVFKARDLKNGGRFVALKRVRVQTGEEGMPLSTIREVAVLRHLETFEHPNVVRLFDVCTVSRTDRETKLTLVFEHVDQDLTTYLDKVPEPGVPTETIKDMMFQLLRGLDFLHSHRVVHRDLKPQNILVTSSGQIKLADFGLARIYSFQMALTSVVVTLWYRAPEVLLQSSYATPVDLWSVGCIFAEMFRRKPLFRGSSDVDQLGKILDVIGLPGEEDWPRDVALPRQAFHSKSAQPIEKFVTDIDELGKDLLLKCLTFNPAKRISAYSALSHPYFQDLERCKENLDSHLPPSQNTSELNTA
Chain of Mitogen-activated protein kinase 7 (Homo sapiens) (Q13164 2-816 limits assumed): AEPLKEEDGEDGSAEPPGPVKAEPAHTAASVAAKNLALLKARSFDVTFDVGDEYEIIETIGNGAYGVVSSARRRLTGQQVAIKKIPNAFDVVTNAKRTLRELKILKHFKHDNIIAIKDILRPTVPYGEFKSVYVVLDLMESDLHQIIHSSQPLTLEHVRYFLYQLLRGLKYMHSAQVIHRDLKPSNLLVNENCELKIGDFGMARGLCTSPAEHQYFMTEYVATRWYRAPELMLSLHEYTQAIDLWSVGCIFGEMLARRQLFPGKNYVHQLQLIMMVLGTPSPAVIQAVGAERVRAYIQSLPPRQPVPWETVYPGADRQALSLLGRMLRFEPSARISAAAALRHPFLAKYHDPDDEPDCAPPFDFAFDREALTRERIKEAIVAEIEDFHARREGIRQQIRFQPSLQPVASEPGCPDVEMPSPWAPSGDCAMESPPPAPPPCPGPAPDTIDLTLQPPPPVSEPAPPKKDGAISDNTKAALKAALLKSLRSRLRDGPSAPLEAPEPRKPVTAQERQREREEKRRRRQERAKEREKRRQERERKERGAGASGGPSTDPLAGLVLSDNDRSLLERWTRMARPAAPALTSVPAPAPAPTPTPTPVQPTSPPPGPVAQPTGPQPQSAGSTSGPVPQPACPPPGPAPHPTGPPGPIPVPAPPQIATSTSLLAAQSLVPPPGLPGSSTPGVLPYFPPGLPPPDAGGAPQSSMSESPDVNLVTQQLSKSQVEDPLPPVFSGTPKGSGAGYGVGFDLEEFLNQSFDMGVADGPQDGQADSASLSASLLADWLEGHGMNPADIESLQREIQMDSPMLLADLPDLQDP

For the compound `NC(=O)c1cc2c(-c3ccc(C(=O)N[C@H](CO)Cc4ccccc4)s3)cccc2s1`, the Ki was 0.101 µM in assay [1] and 0.73 µM in assay [2].

Regarding `NC(=O)c1cc2c(-c3ccc(C(=O)NCc4ccc(N)cc4)s3)cccc2s1`, the inhibitory constant (Ki) in [1] turned out to be 0.0268 µM; in [2], 0.187 µM. Besides, the IC50 in assay [3] amounted to 2.7 µM; in assay [4] it was 3.6 µM.

Regarding `NC(=O)c1cc2c(-c3ccc(C(=O)NCc4ccccc4N)s3)cccc2s1`, the viability at 30 µM in the assay with HeLa [5] was above 75%. The Ki in assay [6] was 1.3 µM; in assay [1], 0.0678 µM; in [2] it was 0.238 µM. For the same compound, the IC50 stood at 1.1 µM in assay [3] and 0.8 µM in assay [4]. The outcome in the assay with HeLa [7] was Active. For the same compound, in [8], the inhibition came out at 38%.

On to `NC(=O)c1cc2c(-c3ccc(C(=O)NC4CCOCC4)s3)cccc2s1`, for which the Ki in assay [1] turned out to be 0.178 µM; in [2], 1.1 µM.

As to `NC(=O)c1cc2c(-c3cc(N)c(C(=O)NC4CC4)s3)cccc2s1`, the Ki in [1] came to 0.0895 µM; in assay [2], 0.814 µM.

On to `NC(=O)c1cc2c(-c3ccc(C(=O)NCc4cccc(O)c4)s3)c(Cl)ccc2s1`, for which the Ki stood at 0.105 µM in [1] and 1.13 µM in assay [2].

As for `NC(=O)c1cc2c(-c3ccc(C(=O)NCc4cccc(N)c4)s3)c(Cl)ccc2s1`, the figures for the Ki in assay [1] and in [2] were 0.0934 µM and 1.45 µM, respectively.

Regarding `NC(=O)c1cc2c(-c3ccc(C(=O)NCc4ccccc4)s3)cccc2s1`, the Ki in [1] is 0.0569 µM; in assay [2], 0.278 µM. Moreover, the IC50 in assay [3] was found to be 4.6 µM; in assay [4], 4.3 µM.

For the compound `NC(=O)c1cc2c(-c3ccc(C(=O)NCc4ccnc(Cl)c4)s3)cccc2s1`, the inhibition in assay [9], in assay [10], in assay [11], in assay [12], in assay [13] and in assay [14] was above 35% each time. The inhibition in [15], in assay [16], in assay [17], in [18], in assay [19] and in [20] was above 35% in each case. In assay [21], the inhibition is above 35%. Moreover, the figures for the Ki in [1] and in assay [2] were 0.0859 µM and 0.642 µM, respectively. The IC50 in [3] worked out at 2 µM; in [4], 1.8 µM.

As to `NC(=O)c1cc2c(-c3ccc(C(=O)NCc4cccc(O)c4)s3)cccc2s1`, the Ki in assay [1] amounted to 0.073 µM; in [2] it was 0.37 µM.

Regarding `NC(=O)c1cc2c(-c3ccc(C(=O)NC4CC4)s3)cccc2s1`, the figures for the Ki in assay [1] and in assay [2] were 0.16 µM and 0.67 µM, respectively.

`NC(=O)c1cc2c(-c3ccc(C(=O)NCc4cccc(N)c4)s3)ccc(F)c2s1`: the Ki amounted to 0.491 µM in assay [1] and 2.31 µM in assay [2].

`NC(=O)c1cc2c(-c3ccc(C(=O)NCc4ccccc4O)s3)c(Cl)ccc2s1`: the Ki is 0.0853 µM in assay [1] and 1.18 µM in assay [2].

Consider `NC(=O)c1cc2c(-c3ccc(C(=O)NCc4ccccc4O)s3)cccc2s1`, for which the figures for the Ki in assay [1] and in assay [2] were 0.0099 µM and 0.0653 µM, respectively. Further, the IC50 in [3] was found to be 4.4 µM; in [4], 3.4 µM.

For the compound `NC(=O)c1cc2c(-c3ccc(C(=O)NCC4CC4)s3)cccc2s1`, the inhibitory constant (Ki) turned out to be 0.0951 µM in [1] and 0.98 µM in [2].

For `NC(=O)c1cc2c(-c3ccc(C(=O)NCc4cccc(N)c4)s3)cccc2s1`, the Ki was determined as 0.119 µM in assay [1] and 0.66 µM in [2].

`NC(=O)c1cc2c(-c3ccc(C(=O)NCCn4cc(CO)nn4)s3)cccc2s1`: the Ki in [1] came out at 0.118 µM; in assay [2], 0.448 µM.

As to `NC(=O)c1cc2c(-c3ccc(C(=O)NCc4ccccc4N)s3)c(Cl)ccc2s1`, the Ki came to 0.0362 µM in assay [1] and 0.577 µM in assay [2]. Moreover, the IC50 in assay [3] was determined as 1.7 µM; in assay [4], 0.7 µM.

`NC(=O)c1cc2c(-c3ccc(C(=O)NCc4cccc(Cl)c4)s3)cccc2s1`: the Ki turned out to be 0.359 µM in assay [1] and 4.4 µM in [2].

In general, Ki refers to a measure of affinity in units of concentration, obtained from inhibition or displacement. The IC50 is the point on the concentration scale where inhibition reaches its midpoint. Low values mean higher potency, high ones lower potency. One may read the inhibition as the drop in the measured response relative to a control, in per cent.
